According to article PMC10258794, “To Fold or Not to Fold: Diastereomeric Optimization of an α-Helical Antimicrobial Peptide” (Journal of Medicinal Chemistry, 2023):
≈ marks a conversion by molar mass, not a printed value. Where two headings read alike, the source gives them in different places. Non-standard residues stand in square brackets, D forms with d. Residues, ends and D or L forms follow the SMILES beside them.

Legend:
[1] = EYPC vesicle leakage assay; type: biochemical; settings: 10 μg/mL of compound; 10 mM TRIS, 107 mM NaCl, pH 7.4
Protocol: 5(6)-carboxyfluorescein (CF) was purchased from Sigma. EYPC, EYPG, and a Mini-Extruder were purchased from Avanti Polar Lipids. Egg PC or Egg PG thin lipid layers were prepared by evaporating a solution of 100 mg of EYPC or EYPG in 4 mL of MeOH/CHCl3 (1:1) on a rotary evaporator at room temperature and then dried in vacuo overnight. […] Extravesicular components were removed by gel filtration (Sephadex G-50) with 10 mM TRIS, 107 mM NaCl, pH 7.4 buffer. Final conditions: ∼2.5 mM PC or PG; inside: 50 mM CF, 10 mM TRIS, 10 mM NaCl, pH 7.4 buffer; outside: 10 mM TRIS, 107 mM NaCl, pH 7.4. […] The CF efflux was monitored at λem 517 nm (λex 492 nm) as a function of time after addition of the desired volume of peptide from 2 mg/mL stock in mQ water at t = 45 s, 10 and 50 μg/mL were monitored for both EYPC and EYPG. […] Fluorescence intensities were then normalized to the maximal emission intensity using I(t) = (It – I0)/(I∞ – I0) where I0 = It at peptide addition, I∞ = It at saturation of lysis.

A. baumannii ATCC19606 = system: A. baumannii ATCC19606
Protocol: (§1) Antimicrobial activity was determined for all peptides on E. coli W3110, P. aeruginosa PAO1, A. baumannii ATCC19606, K. pneumoniae NCTC418, and methicillin-resistant S. aureus COL and for selected peptides on P. aeruginosa PA14 and the polymyxin B-resistant derivatives PA14 4.13, PA14 4.18, and PA14 2P4 as well as the clinical isolates ZEM-1A and ZEM9A, K. pneumoniae OXA-48, Enterobacter cloacae, Stenotrophomonas maltophilia, B. cenocepacia, and Staphylococus epidermis. To determine the MIC, the broth microdilution method was used.[75] A single bacterial colony was grown in LB medium overnight at 37 °C and 180 rpm shaking. The compounds were prepared as stock solutions of 2 mg/mL in sterilized milliQ deionized water, added to the first well of 96-well sterile, polypropylene round-bottom microtiter plates (TPP, untreated, Corning Incorporated, Kennebunk, USA), and diluted serially by 1/2. […] The bacterial inoculum was prepared by measuring the absorbance of the overnight culture, which was diluted to concentration of the bacteria was quantified by measuring absorbance at 600 nm and diluted to an OD600 of 0.022 in MH medium pH 7.4 (Sigma-Aldrich, Buchs, Switzerland). The sample solutions (150 μL) were mixed with 4 μL of diluted bacterial suspension with a final inoculation of about 5 × 10^5 CFU. For each test, two columns of the plate were kept for sterility control (MH medium only) and growth control (MH medium with bacterial inoculum, no compound). […] The plates were incubated at 37 °C for 16–20 h under static conditions. 15 μL of 3-(4,5-dimethylthiazol-2-yl)-2,5-diphenyltetrazolium bromide (MTT)[76] (1 mg/mL in sterilized milliQ deionized water) was added to each well, and the plates were incubated at room temperature until MTT staining was completed. The MIC was defined as the lowest concentration of the dendrimer that inhibits the visible growth of the tested bacteria (yellow) with the unaided eye.

E. coli W3110 = system: E. coli W3110
Protocol: as §1

P. aeruginosa PAO1 = system: P. aeruginosa PAO1
Protocol: as §1

S. aureus COL MRSA = system: S. aureus COL MRSA
Protocol: as §1

K. pneumoniae NCTC418 = system: K. pneumoniae NCTC418
Protocol: as §1

human red blood cells = assay: Hemolysis assay (MHC)
Protocol: To determine the MHC stock solutions, 8 mg/mL peptide in PBS (pH 7.4) was prepared, and 50 μL was diluted serially by l/2 in 50 μL of PBS (pH 7.4) in a 96-well plate (Costar or Nunc, polystyrene, untreated). […] Plasma was discarded, and the pellet was re-suspended in a 15 mL Falcon tube in 5 mL of PBS. The washing was repeated three times, and the remaining pellet was re-suspended in 10 mL of PBS. The hRBC suspension (50 μL) was added to each well, and the plate was incubated at room temperature for 4 h. MHC end points were determined by visual determination of the wells after the incubation period. Controls on each plate included a blank medium control (50 μL PBS + 50 μL of hRBCs suspension) and a hemolytic activity control (mQ-deionized water 50 μL + 50 μL hRBC suspension).

P. aeruginosa ZEM-1A = assay: microbe, parasite or virus in culture; settings: ZEM-1A
Protocol: as §1

Enterobacter cloacae = assay: microbe, parasite or virus in culture
Protocol: as §1

[2] = MH broth pH 7.4, 16–20 h, 37 °C
[3] = supplementary CSV, ranges of Table 1 given as one number

Molecule | EYPC vesicle leakage (%) [1] | MIC A. baumannii ATCC19606 (A. baumannii ATCC19606; [2]) | MIC A. baumannii ATCC19606 (A. baumannii ATCC19606; [3]) | MIC E. coli W3110 (E. coli W3110; [2]) | MIC P. aeruginosa PAO1 (P. aeruginosa PAO1; [2]) | MIC P. aeruginosa PAO1 (P. aeruginosa PAO1; [3]) | MIC S. aureus COL MRSA (S. aureus COL MRSA; [2]) | MIC S. aureus COL (S. aureus COL MRSA; [3]) | MIC K. pneumoniae NCTC418 (K. pneumoniae NCTC418; [2]) | other results
CC(C)C[C@H](NC(=O)[C@H](CC(C)C)NC(=O)[C@H](CC(C)C)NC(=O)[C@@H](CCCCN)NC(=O)[C@@H](CC(C)C)NC(=O)[C@@H](CC(C)C)NC(=O)[C@@H](CCCCN)NC(=O)[C@@H](CC(C)C)NC(=O)[C@H](CC(C)C)NC(=O)[C@H](CCCCN)NC(=O)[C@@H](N)CCCCN)C(N)=O [HP29, KKLlkllkLLL] | 6% | 8 µg/mL (≈ 6.05 µM) | 8 µg/mL (≈ 6.05 µM) | 2 µg/mL (≈ 1.51 µM) | 4 µg/mL (≈ 3.03 µM) | 4 µg/mL (≈ 3.03 µM) | 32 µg/mL (≈ 24.2 µM) | 32 µg/mL (≈ 24.2 µM) | 64 µg/mL (≈ 48.4 µM) | MIC K. pneumoniae NCTC418 (K. pneumoniae NCTC418; [3]): 64 µg/mL (≈ 48.4 µM)
CC(C)C[C@H](NC(=O)[C@H](CC(C)C)NC(=O)[C@@H](CCCCN)NC(=O)[C@H](CC(C)C)NC(=O)[C@H](CC(C)C)NC(=O)[C@@H](CCCCN)NC(=O)[C@H](N)CCCCN)C(=O)N[C@@H](CCCCN)C(=O)N[C@@H](CC(C)C)C(=O)N[C@H](CC(C)C)C(=O)N[C@H](CC(C)C)C(N)=O [HP26, kkLLkLLKLll] | 6% | 16 µg/mL (≈ 12.1 µM) | 16 µg/mL (≈ 12.1 µM) | 4 µg/mL (≈ 3.03 µM) | 4 µg/mL (≈ 3.03 µM) | 4 µg/mL (≈ 3.03 µM) | 32 µg/mL (≈ 24.2 µM) | 32 µg/mL (≈ 24.2 µM) | >64 µg/mL | 
H-RRIIRIIRIII-NH2 [HP36] |  |  |  |  |  |  |  |  |  | MHC (human red blood cells): 63 µg/mL; MHC (human red blood cells; pH 7.4): 62.5 µg/mL; MIC A. baumannii ATCC19606 (A. baumannii ATCC19606; ATCC19606): 12 µg/mL; MIC A. baumannii ATCC19606 (A. baumannii ATCC19606; ATCC19606, pH 7.4): 8 to 16 µg/mL; MIC S. aureus COL (S. aureus COL MRSA; COL): 24 µg/mL; MIC S. aureus COL MRSA (S. aureus COL MRSA; COL, pH 7.4): 16 to 32 µg/mL
CC(C)C[C@H](NC(=O)[C@H](CC(C)C)NC(=O)[C@@H](CC(C)C)NC(=O)[C@H](CCCCN)NC(=O)[C@@H](CC(C)C)NC(=O)[C@H](CC(C)C)NC(=O)[C@@H](CCCCN)NC(=O)[C@H](CC(C)C)NC(=O)[C@@H](CC(C)C)NC(=O)[C@H](CCCCN)NC(=O)[C@@H](N)CCCCN)C(N)=O [HP15, KKlLkLlKlLL] | 3% | 32 to 64 µg/mL | 48 µg/mL (≈ 36.3 µM) | 8 µg/mL (≈ 6.05 µM) | 16 µg/mL (≈ 12.1 µM) | 16 µg/mL (≈ 12.1 µM) | >64 µg/mL |  | >64 µg/mL | 
CC(C)C[C@H](NC(=O)[C@H](CC(C)C)NC(=O)[C@H](CCCCN)NC(=O)[C@H](CC(C)C)NC(=O)[C@H](CC(C)C)NC(=O)[C@@H](CCCCN)NC(=O)[C@H](N)CCCCN)C(=O)N[C@@H](CCCCN)C(=O)N[C@@H](CC(C)C)C(=O)N[C@@H](CC(C)C)C(=O)N[C@H](CC(C)C)C(N)=O [HP7] |  |  |  |  |  |  |  |  |  | MIC ZEM-1A (P. aeruginosa ZEM-1A; pH 7.4): 1 µg/mL (≈ 0.757 µM); MIC E. cloacae (Enterobacter cloacae): 2 µg/mL (≈ 1.51 µM)
CC[C@H](C)[C@H](NC(=O)[C@@H](NC(=O)[C@@H](NC(=O)[C@@H](CCCNC(=N)N)NC(=O)[C@@H](NC(=O)[C@@H](NC(=O)[C@@H](CCCNC(=N)N)NC(=O)[C@@H](NC(=O)[C@@H](NC(=O)[C@@H](CCCNC(=N)N)NC(=O)[C@H](N)CCCNC(=N)N)[C@@H](C)CC)[C@@H](C)CC)[C@@H](C)CC)[C@@H](C)CC)[C@@H](C)CC)[C@@H](C)CC)C(N)=O [HP37, rrIIrIIrIII] (H-[dR][dR]II[dR]II[dR]III-NH2) |  |  |  |  |  |  |  |  |  | MHC (human red blood cells): 250 µg/mL; MHC (human red blood cells; pH 7.4): 250 µg/mL; MIC A. baumannii ATCC19606 (A. baumannii ATCC19606; ATCC19606): 12 µg/mL (≈ 8.37 µM); MIC A. baumannii ATCC19606 (A. baumannii ATCC19606; ATCC19606, pH 7.4): 8 to 16 µg/mL; MIC P. aeruginosa PAO1 (P. aeruginosa PAO1; PAO1): 6 µg/mL (≈ 4.18 µM); MIC P. aeruginosa PAO1 (P. aeruginosa PAO1; PAO1, pH 7.4): 4 to 8 µg/mL; MIC S. aureus COL (S. aureus COL MRSA; COL): 12 µg/mL (≈ 8.37 µM); MIC S. aureus COL MRSA (S. aureus COL MRSA; COL, pH 7.4): 8 to 16 µg/mL; MIC K. pneumoniae NCTC418 (K. pneumoniae NCTC418; NCTC418): 48 µg/mL (≈ 33.5 µM); MIC K. pneumoniae NCTC418 (K. pneumoniae NCTC418; NCTC418, pH 7.4): 32 to 64 µg/mL
H-RRLLRLLRLLL-NH2 [HP32] |  |  |  |  |  |  |  |  |  | MHC (human red blood cells; human red blood cells in PBS pH 7.4, 4 h, room temperature): 15.6 µg/mL; MHC (human red blood cells; supplementary CSV, human red blood cells): 16 µg/mL
CC(C)C[C@H](NC(=O)[C@H](CCCCN)NC(=O)[C@H](N)CCCCN)C(=O)N[C@@H](CC(C)C)C(=O)N[C@H](CCCCN)C(=O)N[C@H](CC(C)C)C(=O)N[C@H](CC(C)C)C(=O)N[C@@H](CCCCN)C(=O)N[C@@H](CC(C)C)C(=O)N[C@@H](CC(C)C)C(=O)N[C@H](CC(C)C)C(N)=O [HP28, kKLLkllKLLl] | 3% |  |  | 2 to 4 µg/mL | 4 µg/mL (≈ 3.03 µM) | 4 µg/mL (≈ 3.03 µM) | 32 µg/mL (≈ 24.2 µM) | 32 µg/mL (≈ 24.2 µM) | >64 µg/mL | MIC E. coli W3110 (E. coli W3110; [3]): 3 µg/mL (≈ 2.27 µM)
CC(C)C[C@H](NC(=O)[C@H](CC(C)C)NC(=O)[C@H](CC(C)C)NC(=O)[C@H](CCCCN)NC(=O)[C@H](CC(C)C)NC(=O)[C@H](CC(C)C)NC(=O)[C@H](CCCCN)NC(=O)[C@@H](CC(C)C)NC(=O)[C@@H](CC(C)C)NC(=O)[C@@H](CCCCN)NC(=O)[C@@H](N)CCCCN)C(N)=O [HP8, KkllKLLKLLL] |  |  |  |  |  |  |  |  |  | MIC P. aeruginosa ZEM-1A (P. aeruginosa ZEM-1A): 2 µg/mL (≈ 1.51 µM)
CC(C)C[C@H](NC(=O)[C@H](CC(C)C)NC(=O)[C@H](CC(C)C)NC(=O)[C@H](CCCCN)NC(=O)[C@H](CC(C)C)NC(=O)[C@@H](CC(C)C)NC(=O)[C@H](CCCCN)NC(=O)[C@@H](CC(C)C)NC(=O)[C@@H](CC(C)C)NC(=O)[C@@H](CCCCN)NC(=O)[C@@H](N)CCCCN)C(N)=O [HP12, KkllKlLKLLL] |  | 8 µg/mL (≈ 6.05 µM) | 8 µg/mL (≈ 6.05 µM) | 2 to 4 µg/mL | 4 to 8 µg/mL | 6 µg/mL (≈ 4.54 µM) | 4 µg/mL (≈ 3.03 µM) | 4 µg/mL (≈ 3.03 µM) | 8 to 16 µg/mL | MIC E. coli W3110 (E. coli W3110; [3]): 3 µg/mL (≈ 2.27 µM)
